The values below are quoted from earlier work in patent publication US20040162333A1, “Rapid absorption selective 5-HT agonist formulations” (priority 2003, published 2004).

For this data set the following is noted: commercially available oral triptans.

`CN(C)CCc1c[nH]c2ccc(CS(=O)(=O)N3CCCC3)cc12` [Almotriptan (Axert), Almotriptan]: the “Time to Peak Effect (Tmax)” value was 1 to 3 h.
Consider `CN[C@@H]1CCc2[nH]c3ccc(C(N)=O)cc3c2C1` [Frovatriptan (Frova), Frovatriptan], for which the “Time to Peak Effect (Tmax)” value was 2 to 4 h.
As for `CNS(=O)(=O)CCc1ccc2[nH]cc(C3CCN(C)CC3)c2c1` [Naratriptan (Amerge), Naratriptan], the “Time to Peak Effect (Tmax)” value is 2 to 3 h.
On to `CN(C)CCc1c[nH]c2ccc(Cn3cncn3)cc12` [Rizatriptan (Maxalt), Rizatriptan], for which the “Time to Peak Effect (Tmax)” value is 1 to 1.5 h.
On to `CNS(=O)(=O)Cc1ccc2[nH]cc(CCN(C)C)c2c1` [Sumatriptan], for which the “Time to Peak Effect (Tmax)” value is 2.5 h.
Turning to `CN(C)CCc1c[nH]c2ccc(C[C@H]3COC(=O)N3)cc12` [Zolmitriptan (Zomig), Zolmitriptan], the “Time to Peak Effect (Tmax)” value was 2 h.
